# Measurements from US9144633B2, “Implantable devices coated with insulin-mimetic vanadium compounds and methods thereof” (RUTGERS, THE STATE UNIVERSITY OF NEW JERSEY, priority 2010, dated 2015).
# Where two headings read alike, the source gives them in different places.
# How the values were obtained:
# bone fracture = assay: Local VAC application without a carrier, fracture healing (preliminary data); format: in vivo; details: at the dosages tested
# Description: This evidence opens up many future applications to the use of VAC alone, or incorporated with a carrier as an option for fracture healing.
# bone homeostasis = details: cited from earlier work
# [1] = cited from earlier work
# kidney and liver = details: VAC treatment; cited from earlier work
smiles,measurement,setting,value
"CC(=O)/C=C(/C)[O-].CC(=O)/C=C(/C)[O-].[O]=[V+2] [VAC, vanadyl acetylacetonate]",speed of bone healing versus saline controls,bone fracture,more than twice as rapidly as saline controls
same,effect on bone parameters,bone homeostasis; diabetic rats,"improved the ultimate strength, Tb,Th, MAR, and plasma osteocalcin"
same,effect on bone parameters,bone homeostasis; normal rats,did not affect any bone parameters
same,tolerance / signs of toxicity,[1]; after several days,no signs of toxicity
same,tissue distribution / accumulation,[1]; widely distributed to all tissues,greatest accumulation was within femur tissue
same,function or structure of kidney and liver,kidney and liver,does not impair the function or structure of kidney and liver
